Numbers after ± are expanded uncertainties.
Assays:
[1] = refractive index (Na D-line) (dimensionless); details: 298.15 K; 101.33 kPa; Liquid; Standard Abbe refractometry
[2] = 298.15 K; 101.33 kPa; Liquid; Vibrating tube method
[3] = xn = mol fraction of the nth substance listed; details: 101.3 kPa, Liquid, Vibrating tube method

With `CCOS(=O)(=O)[O-].CC[n+]1cccc(C)c1` [1-ethyl-3-methylpyridinium ethylsulfate] the refractive index [1] was 1.50591 ± 0.00037 and the mass density [2] was 1219.61 ± 0.42 kg/m3.

`c1ccccc1` [benzene] + CCCCCCCC showed a mass density ([3]; 283.15 K, x2 = 0) of 889.51 ± 0.1 kg/m3 and a mass density ([3]; 298.15 K, x2 = 0) of 873.57 ± 0.1 kg/m3.

For `c1ccccc1` [benzene] + CCCCCCCCC, the mass density ([3]; 283.15 K, x2 = 0) was 889.51 ± 0.1 kg/m3 and the mass density ([3]; 298.15 K, x2 = 0) was 873.57 ± 0.1 kg/m3.

`CCCCCCCCC` [nonane] + c1ccccc1 showed a mass density ([3]; 283.15 K, x1 = 0.0982) of 856.81 ± 0.13 kg/m3, a mass density ([3]; 283.15 K, x1 = 0.1996) of 829.82 ± 0.13 kg/m3 and a mass density ([3]; 283.15 K, x1 = 0.304) of 807.64 ± 0.14 kg/m3. It also gave a mass density ([3]; 283.15 K, x1 = 0.4001) of 790.32 ± 0.15 kg/m3, a mass density ([3]; 283.15 K, x1 = 0.497) of 775.74 ± 0.17 kg/m3 and a mass density ([3]; 283.15 K, x1 = 0.5995) of 762.31 ± 0.18 kg/m3. For the same molecule, the mass density ([3]; 283.15 K, x1 = 0.6989) was 751.53 ± 0.2 kg/m3, the mass density ([3]; 283.15 K, x1 = 0.7959) was 741.95 ± 0.21 kg/m3 and the mass density ([3]; 283.15 K, x1 = 0.8928) was 733.72 ± 0.23 kg/m3. It also gave a mass density ([3]; 283.15 K, x1 = 1) of 725.51 ± 0.24 kg/m3, a mass density ([3]; 298.15 K, x1 = 0.0982) of 841.94 ± 0.13 kg/m3 and a mass density ([3]; 298.15 K, x1 = 0.1996) of 815.82 ± 0.13 kg/m3. For the same molecule, the mass density ([3]; 298.15 K, x1 = 0.304) was 794.17 ± 0.14 kg/m3, the mass density ([3]; 298.15 K, x1 = 0.4001) was 777.31 ± 0.16 kg/m3 and the mass density ([3]; 298.15 K, x1 = 0.497) was 763.05 ± 0.17 kg/m3. It also gave a mass density ([3]; 298.15 K, x1 = 0.5995) of 750.12 ± 0.18 kg/m3, a mass density ([3]; 298.15 K, x1 = 0.6989) of 739.44 ± 0.2 kg/m3 and a mass density ([3]; 298.15 K, x1 = 0.7959) of 730.03 ± 0.21 kg/m3. The mass density ([3]; 298.15 K, x1 = 0.8928) was 721.91 ± 0.23 kg/m3 and the mass density ([3]; 298.15 K, x1 = 1) was 713.99 ± 0.25 kg/m3.

`CCCCCCCC` [octane] + c1ccccc1 showed a mass density ([3]; 283.15 K, x1 = 0.1024) of 855.9 ± 0.13 kg/m3, a mass density ([3]; 283.15 K, x1 = 0.2013) of 828.82 ± 0.13 kg/m3 and a mass density ([3]; 283.15 K, x1 = 0.3006) of 806.11 ± 0.13 kg/m3. The mass density ([3]; 283.15 K, x1 = 0.4234) was 782.24 ± 0.14 kg/m3, the mass density ([3]; 283.15 K, x1 = 0.5001) was 769.31 ± 0.14 kg/m3 and the mass density ([3]; 283.15 K, x1 = 0.5985) was 754.84 ± 0.15 kg/m3. The mass density ([3]; 283.15 K, x1 = 0.6982) was 741.81 ± 0.16 kg/m3, the mass density ([3]; 283.15 K, x1 = 0.7972) was 730.25 ± 0.16 kg/m3 and the mass density ([3]; 283.15 K, x1 = 0.9031) was 719.42 ± 0.17 kg/m3. For the same molecule, the mass density ([3]; 283.15 K, x1 = 1) was 710.5 ± 0.17 kg/m3, the mass density ([3]; 298.15 K, x1 = 0.1024) was 840.84 ± 0.13 kg/m3 and the mass density ([3]; 298.15 K, x1 = 0.2013) was 814.43 ± 0.13 kg/m3. For the same molecule, the mass density ([3]; 298.15 K, x1 = 0.3006) was 792.21 ± 0.13 kg/m3, the mass density ([3]; 298.15 K, x1 = 0.4234) was 768.91 ± 0.14 kg/m3 and the mass density ([3]; 298.15 K, x1 = 0.5001) was 756.54 ± 0.15 kg/m3. For the same molecule, the mass density ([3]; 298.15 K, x1 = 0.5985) was 742.05 ± 0.15 kg/m3, the mass density ([3]; 298.15 K, x1 = 0.6982) was 729.34 ± 0.16 kg/m3 and the mass density ([3]; 298.15 K, x1 = 0.7972) was 718.02 ± 0.17 kg/m3. For the same molecule, the mass density ([3]; 298.15 K, x1 = 0.9031) was 707.31 ± 0.17 kg/m3 and the mass density ([3]; 298.15 K, x1 = 1) was 698.6 ± 0.18 kg/m3.

— the NIST ThermoML archive (doi:10.1016/j.jct.2009.07.017)
